Results on 5 molecules are retold here after ChEMBL document CHEMBL4825729, “Modulators of immunoregulatory exonucleases PLD3 and PLD4 identified by high-throughput screen” (Bioorg Med Chem Lett, 2021).

Data set [1] has as its target T1, 5'-3' exonuclease PLD3 (Homo sapiens, UniProt Q8IV08).
T1 sequence (Q8IV08 whole entry): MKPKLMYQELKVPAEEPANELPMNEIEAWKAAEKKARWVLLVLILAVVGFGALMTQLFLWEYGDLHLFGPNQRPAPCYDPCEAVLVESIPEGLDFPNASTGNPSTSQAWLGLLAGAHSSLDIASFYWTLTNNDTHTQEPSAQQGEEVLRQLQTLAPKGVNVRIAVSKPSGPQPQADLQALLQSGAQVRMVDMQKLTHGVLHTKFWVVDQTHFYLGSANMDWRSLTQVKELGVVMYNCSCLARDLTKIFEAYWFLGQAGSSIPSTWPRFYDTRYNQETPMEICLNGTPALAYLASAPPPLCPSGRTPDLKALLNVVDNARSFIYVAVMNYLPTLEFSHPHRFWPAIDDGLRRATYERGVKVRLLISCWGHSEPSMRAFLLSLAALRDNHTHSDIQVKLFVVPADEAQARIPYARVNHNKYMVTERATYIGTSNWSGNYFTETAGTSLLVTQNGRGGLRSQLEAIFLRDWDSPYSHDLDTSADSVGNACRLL
Nature of the data set: Inhibition of PLD3 (unknown origin) using 3'-dT-MUP as substrate by fluorescence-based screening assay.

In data set [2] the target is T2, 5'-3' exonuclease PLD4 (Homo sapiens, UniProt Q96BZ4).
T2 sequence (Q96BZ4 whole entry): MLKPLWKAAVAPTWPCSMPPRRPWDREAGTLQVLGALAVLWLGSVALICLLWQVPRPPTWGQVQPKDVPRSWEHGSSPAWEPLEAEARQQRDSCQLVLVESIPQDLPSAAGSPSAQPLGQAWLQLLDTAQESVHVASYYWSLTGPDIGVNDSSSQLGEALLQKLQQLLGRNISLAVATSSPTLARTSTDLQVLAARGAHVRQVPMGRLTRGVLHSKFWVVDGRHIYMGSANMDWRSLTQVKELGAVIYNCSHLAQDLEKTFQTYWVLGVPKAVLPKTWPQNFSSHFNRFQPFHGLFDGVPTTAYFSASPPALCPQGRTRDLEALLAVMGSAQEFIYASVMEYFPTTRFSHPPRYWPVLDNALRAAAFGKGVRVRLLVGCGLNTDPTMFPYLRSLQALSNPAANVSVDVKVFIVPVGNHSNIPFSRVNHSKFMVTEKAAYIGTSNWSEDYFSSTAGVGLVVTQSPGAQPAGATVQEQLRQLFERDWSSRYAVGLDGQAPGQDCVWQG
Nature of the data set: Inhibition of PLD4 (unknown origin) using 3'-dT-MUP as substrate by fluorescence-based screening assay.

For data set [3], the target named is T3, 5'-3' exonuclease PLD3 (Homo sapiens) (UniProt Q8IV08).
T3 sequence (whole entry): T1 sequence (Q8IV08 whole entry)
Nature of the data set: Mixed type inhibition of PLD3 (unknown origin) assessed as Km using varying concentration 3'-dT-MUP as substrate by fluorescence-based screening assay.

Data set [4] has as its target T3, 5'-3' exonuclease PLD3 (Homo sapiens). The experiment in a line: Mixed type inhibition of PLD3 (unknown origin) assessed as binding constant using varying concentration 3'-dT-MUP as substrate by fluorescence-based screening assay.
Data set [5] addresses T1, 5'-3' exonuclease PLD3. The experiment in a line: Inhibition of PLD3 (unknown origin) using 3'-dT-nNPP as substrate by fluorescence-based screening assay.
The target of data set [6] is T2, 5'-3' exonuclease PLD4. Nature of the data set: Inhibition of PLD4 (unknown origin) using 3'-dT-nNPP as substrate by fluorescence-based screening assay.
For data set [7], the target named is T1, 5'-3' exonuclease PLD3. The experiment in a line: Activation of PLD3 (unknown origin) using 3'-dT-MUP as substrate by fluorescence-based screening assay.
Data set [8] concerns the target T2, 5'-3' exonuclease PLD4. The experiment in a line: Activation of PLD4 (unknown origin) using 3'-dT-MUP as substrate by fluorescence-based screening assay.
Data set [9] concerns the target T2, 5'-3' exonuclease PLD4. The experiment in a line: Activation of PLD4 (unknown origin) using 3'-dT-nNPP as substrate by fluorescence-based screening assay.
Data set [10] has as its target T1, 5'-3' exonuclease PLD3. The experiment in a line: Activation of PLD3 (unknown origin) using 3'-dT-nNPP as substrate by fluorescence-based screening assay.
Data set [11] addresses T3, 5'-3' exonuclease PLD3 (Homo sapiens). Nature of the data set: Activation of PLD3 (unknown origin) assessed as association constant using varying concentration 3'-dT-MUP as substrate by fluorescence-based screening assay. The note with it: filed as activator.
Data set [12] deals with T4, 5'-3' exonuclease PLD4 (Homo sapiens) (UniProt Q96BZ4).
T4 sequence (whole entry): T2 sequence (Q96BZ4 whole entry)
Nature of the data set: Competitive inhibition of PLD4 (unknown origin) assessed as Km using varying concentration 3'-dT-MUP as substrate by fluorescence-based screening assay.

Data set [13] deals with T4, 5'-3' exonuclease PLD4 (Homo sapiens). Nature of the data set: Competitive inhibition of PLD4 (unknown origin) assessed as binding constant using varying concentration 3'-dT-MUP as substrate by fluorescence-based screening assay.
Substrate in data set [14]: Cc1cn([C@H]2C[C@H](O)[C@@H](COP(=O)(O)Oc3ccc([N+](=O)[O-])cc3)O2)c(=O)[nH]c1=O
Nature of the data set: (§1) Substrate activity at PLD4 (unknown origin) assessed as Km by Michaelis-Menten kinetic model based fluorescence assay. The note with it: Homo sapiens.

Substrate in data set [15]: Cc1cn([C@H]2C[C@H](OP(=O)(O)Oc3ccc([N+](=O)[O-])cc3)[C@@H](CO)O2)c(=O)[nH]c1=O
The description is as §1. The note with it: Homo sapiens.

Substrate in data set [16]: Cc1cn([C@H]2C[C@H](O)[C@@H](COP(=O)(O)Oc3ccc([N+](=O)[O-])cc3)O2)c(=O)[nH]c1=O
Nature of the data set: (§2) Substrate activity at PLD4 (unknown origin) assessed as Kcat by Michaelis-Menten kinetic model based fluorescence assay. The note with it: Homo sapiens.

Substrate in data set [17]: Cc1cn([C@H]2C[C@H](OP(=O)(O)Oc3ccc([N+](=O)[O-])cc3)[C@@H](CO)O2)c(=O)[nH]c1=O
The data set is described as §2. The note with it: Homo sapiens.

Substrate in data set [18]: Cc1cn([C@H]2C[C@H](O)[C@@H](COP(=O)(O)Oc3ccc([N+](=O)[O-])cc3)O2)c(=O)[nH]c1=O
The experiment in a line: (§3) Substrate activity at PLD4 (unknown origin) assessed as ratio of Kcat to Km by Michaelis-Menten kinetic model based fluorescence assay. The conditions noted are these: Homo sapiens.

Substrate in data set [19]: Cc1cn([C@H]2C[C@H](OP(=O)(O)Oc3ccc([N+](=O)[O-])cc3)[C@@H](CO)O2)c(=O)[nH]c1=O
Described as §3. The note with it: Homo sapiens.

Compound in data set [20]: Cc1cc(C)cc(N2CCn3c2nc2c3c(=O)n(CC(=O)O)c(=N)n2C)c1
Nature of the data set: Competitive inhibition of PLD4 (unknown origin) assessed as Vmax using varying concentration 3'-dT-MUP as substrate by fluorescence-based screening assay. The conditions noted are these: Homo sapiens.

Substrate in data set [21]: Cc1cn([C@H]2C[C@H](O)[C@@H](COP(=O)(O)Oc3ccc([N+](=O)[O-])cc3)O2)c(=O)[nH]c1=O
The experiment in a line: (§4) Substrate activity at PLD3 (unknown origin) assessed as Km by Michaelis-Menten kinetic model based fluorescence assay. The conditions noted are these: Homo sapiens.

Substrate in data set [22]: Cc1cn([C@H]2C[C@H](OP(=O)(O)Oc3ccc([N+](=O)[O-])cc3)[C@@H](CO)O2)c(=O)[nH]c1=O
The data set is described as §4. The note with it: Homo sapiens.

Substrate in data set [23]: Cc1cn([C@H]2C[C@H](O)[C@@H](COP(=O)(O)Oc3ccc([N+](=O)[O-])cc3)O2)c(=O)[nH]c1=O
Nature of the data set: (§5) Substrate activity at PLD3 (unknown origin) assessed as Kcat by Michaelis-Menten kinetic model based fluorescence assay. The note with it: Homo sapiens.

Substrate in data set [24]: Cc1cn([C@H]2C[C@H](OP(=O)(O)Oc3ccc([N+](=O)[O-])cc3)[C@@H](CO)O2)c(=O)[nH]c1=O
Described as §5. The note with it: Homo sapiens.

Substrate in data set [25]: Cc1cn([C@H]2C[C@H](O)[C@@H](COP(=O)(O)Oc3ccc([N+](=O)[O-])cc3)O2)c(=O)[nH]c1=O
The experiment in a line: (§6) Substrate activity at PLD3 (unknown origin) assessed as ratio of Kcat to Km by Michaelis-Menten kinetic model based fluorescence assay. The note with it: Homo sapiens.

Substrate in data set [26]: Cc1cn([C@H]2C[C@H](OP(=O)(O)Oc3ccc([N+](=O)[O-])cc3)[C@@H](CO)O2)c(=O)[nH]c1=O
Described as §6. The note with it: Homo sapiens.

Compound in data set [27]: Cc1cc(C)cc(N2CCn3c2nc2c3c(=O)n(CC(=O)O)c(=N)n2C)c1
Nature of the data set: (§7) Mixed type inhibition of PLD3 (unknown origin) assessed as Vmax using varying concentration 3'-dT-MUP as substrate by fluorescence-based screening assay. The conditions noted are these: Homo sapiens.

Compound in data set [28]: Cc1ccc(Cn2c(SCC(=O)O)nc3c2c(=O)n(C)c(=O)n3C)cc1
Described as §7. The conditions noted are these: Homo sapiens.

Compound in data set [29]: Cc1nc(SCC(=O)N2CCC(C)CC2)c2ccsc2n1
Nature of the data set: Activation of PLD3 (unknown origin) assessed as Km using varying concentration 3'-dT-MUP as substrate by fluorescence-based screening assay. The note with it: Homo sapiens; filed as activator.

Compound in data set [30]: Cc1nc(SCC(=O)N2CCC(C)CC2)c2ccsc2n1
Nature of the data set: Activation of PLD3 (unknown origin) assessed as Vmax using varying concentration 3'-dT-MUP as substrate by fluorescence-based screening assay. The conditions noted are these: Homo sapiens; filed as activator.

What is called IC50 is the point on the concentration scale where inhibition reaches its midpoint. Read a high IC50 as lower potency. For the molecule `Cc1ccc(Cn2c(SCC(=O)O)nc3c2c(=O)n(C)c(=O)n3C)cc1`, the IC50 came to 13 µM at 5'-3' exonuclease PLD3 [1], 142 µM against 5'-3' exonuclease PLD4 [2], 8.9 µM at 5'-3' exonuclease PLD3 [5] and 128 µM against 5'-3' exonuclease PLD4 [6]. The INH in data set [3] was 13.6 µM; in data set [4] it was 6.2 µM.

Usually EC50 stands for the concentration at which the effect is half-maximal. With `Cc1nc(SCC(=O)N2CCC(C)CC2)c2ccsc2n1`, the EC50 was 12.8 µM on 5'-3' exonuclease PLD3 [7], 115 µM at 5'-3' exonuclease PLD4 [8], “Not Active” at 5'-3' exonuclease PLD4 [9] and 19.6 µM at 5'-3' exonuclease PLD3 [10]. Besides, the Ka in [11] is 80.9 µM.

As for `Cc1cc(C)cc(N2CCn3c2nc2c3c(=O)n(CC(=O)O)c(=N)n2C)c1`, the 50% inhibitory concentration (IC50) on 5'-3' exonuclease PLD3 [1] stood at 39.6 µM; against 5'-3' exonuclease PLD4 [2] it was 14.7 µM; against 5'-3' exonuclease PLD3 [5], 127 µM; on 5'-3' exonuclease PLD4 [6], 19 µM. For the same molecule, the INH worked out at 64.5 µM in data set [12], 32.4 µM in [13], 14.9 µM in [3] and 28.9 µM in data set [4].

B1: 5'-3' exonuclease PLD4 (Homo sapiens), Q96BZ4 (protein)
chain: T2 sequence (Q96BZ4 whole entry)
Broadly, the kcat is the maximal rate divided by the concentration of active sites. The term Km denotes the substrate concentration at which the rate is half of its maximum. What is called kcat/Km is the turnover number divided by the Michaelis constant. As usually defined, the Vmax is the top rate of the reaction or transport when substrate is in excess. Turning to B1, the values for the kcat in data set [14] and in data set [15] were 47 s⁻¹ and 18.9 s⁻¹, respectively. The Michaelis constant (Km) worked out at 860 µM in data set [16] and 378 µM in data set [17]. Moreover, the kcat/Km in data set [18] was 86.6 M⁻¹ s⁻¹; in data set [19] it was 5 M⁻¹ s⁻¹. Moreover, the Vmax in [20] is 1560 /RU/s.

B2: 5'-3' exonuclease PLD3 (Homo sapiens), Q8IV08 (protein)
chain: T1 sequence (Q8IV08 whole entry)
In the case of B2, the values for the Km in data set [21], in data set [22] and in [29] were 1350 µM, 302 µM and 14.7 µM, respectively. For the same molecule, the kcat/Km worked out at 34.8 M⁻¹ s⁻¹ in data set [23] and 6.26 M⁻¹ s⁻¹ in data set [24]. Further, the kcat in data set [25] was determined as 74.5 s⁻¹; in [26] it was 18.9 s⁻¹. For the same molecule, the figures for the Vmax in data set [27], in [28] and in [30] were 318 /RU/s, 313 /RU/s and 327 /RU/s, respectively.
